Tests used:
Assay type in all cases: biochemical
EF (edema factor) = target: T1, EF (edema factor) (Bacillus anthracis, UniProt P40136); settings: read-out: EF / KM
T1 construct: gene cya

CyaA-N [1] = target: T2, CyaA-N (Bordetella pertussis, UniProt P0DKX7); settings: read-out: CyaA-N / KM
T2 construct: gene cya; catalytic domain, amino acids 1 to 373; plasmid pExCyaA-N; purified from E. coli; assayed with calf brain calmodulin; with Calmodulin

CyaA-N [2] = target: T2, CyaA-N

T2 sequence (P0DKX7 whole entry, looked up, the tested form may be a part): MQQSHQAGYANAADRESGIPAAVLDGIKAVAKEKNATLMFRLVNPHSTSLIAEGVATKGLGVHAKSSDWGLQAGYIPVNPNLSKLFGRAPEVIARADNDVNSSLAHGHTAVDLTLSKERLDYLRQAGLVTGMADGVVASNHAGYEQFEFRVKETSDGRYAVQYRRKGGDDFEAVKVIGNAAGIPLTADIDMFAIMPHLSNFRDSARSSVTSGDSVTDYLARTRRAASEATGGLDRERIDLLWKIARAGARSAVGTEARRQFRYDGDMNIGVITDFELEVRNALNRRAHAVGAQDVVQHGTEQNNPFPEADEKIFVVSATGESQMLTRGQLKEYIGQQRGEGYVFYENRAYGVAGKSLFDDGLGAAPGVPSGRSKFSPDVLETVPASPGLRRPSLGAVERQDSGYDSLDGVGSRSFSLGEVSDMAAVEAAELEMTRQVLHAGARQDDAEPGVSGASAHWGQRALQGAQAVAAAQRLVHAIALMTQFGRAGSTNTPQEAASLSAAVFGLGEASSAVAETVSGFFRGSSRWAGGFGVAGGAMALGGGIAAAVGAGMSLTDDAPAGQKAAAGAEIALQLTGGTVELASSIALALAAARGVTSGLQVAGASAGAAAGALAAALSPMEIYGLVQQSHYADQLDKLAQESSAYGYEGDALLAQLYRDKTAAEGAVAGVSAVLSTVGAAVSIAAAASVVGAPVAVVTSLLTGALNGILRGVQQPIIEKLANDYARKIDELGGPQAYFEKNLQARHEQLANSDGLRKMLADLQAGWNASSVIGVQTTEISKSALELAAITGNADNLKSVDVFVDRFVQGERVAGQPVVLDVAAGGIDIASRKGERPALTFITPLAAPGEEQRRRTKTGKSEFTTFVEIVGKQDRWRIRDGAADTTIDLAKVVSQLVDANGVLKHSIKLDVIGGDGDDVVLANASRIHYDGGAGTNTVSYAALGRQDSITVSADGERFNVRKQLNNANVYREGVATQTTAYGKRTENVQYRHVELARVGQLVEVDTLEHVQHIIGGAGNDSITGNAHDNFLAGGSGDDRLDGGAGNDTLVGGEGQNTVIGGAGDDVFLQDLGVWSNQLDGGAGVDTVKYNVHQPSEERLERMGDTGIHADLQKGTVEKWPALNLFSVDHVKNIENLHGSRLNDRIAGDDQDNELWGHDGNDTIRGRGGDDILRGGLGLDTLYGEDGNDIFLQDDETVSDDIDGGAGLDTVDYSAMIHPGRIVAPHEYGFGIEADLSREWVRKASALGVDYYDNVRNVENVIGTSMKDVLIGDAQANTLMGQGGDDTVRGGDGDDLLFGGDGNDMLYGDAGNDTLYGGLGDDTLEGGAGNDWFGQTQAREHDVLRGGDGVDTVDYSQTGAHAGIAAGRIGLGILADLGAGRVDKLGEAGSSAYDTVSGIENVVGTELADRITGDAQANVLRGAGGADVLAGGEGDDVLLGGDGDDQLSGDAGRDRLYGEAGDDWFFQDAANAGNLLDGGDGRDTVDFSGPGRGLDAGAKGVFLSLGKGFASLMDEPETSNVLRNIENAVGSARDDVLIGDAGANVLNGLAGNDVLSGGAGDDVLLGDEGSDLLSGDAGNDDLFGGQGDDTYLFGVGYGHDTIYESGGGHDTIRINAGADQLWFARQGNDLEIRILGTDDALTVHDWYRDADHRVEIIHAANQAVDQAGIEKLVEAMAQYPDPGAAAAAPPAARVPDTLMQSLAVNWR
T1 sequence (P40136 whole entry, looked up): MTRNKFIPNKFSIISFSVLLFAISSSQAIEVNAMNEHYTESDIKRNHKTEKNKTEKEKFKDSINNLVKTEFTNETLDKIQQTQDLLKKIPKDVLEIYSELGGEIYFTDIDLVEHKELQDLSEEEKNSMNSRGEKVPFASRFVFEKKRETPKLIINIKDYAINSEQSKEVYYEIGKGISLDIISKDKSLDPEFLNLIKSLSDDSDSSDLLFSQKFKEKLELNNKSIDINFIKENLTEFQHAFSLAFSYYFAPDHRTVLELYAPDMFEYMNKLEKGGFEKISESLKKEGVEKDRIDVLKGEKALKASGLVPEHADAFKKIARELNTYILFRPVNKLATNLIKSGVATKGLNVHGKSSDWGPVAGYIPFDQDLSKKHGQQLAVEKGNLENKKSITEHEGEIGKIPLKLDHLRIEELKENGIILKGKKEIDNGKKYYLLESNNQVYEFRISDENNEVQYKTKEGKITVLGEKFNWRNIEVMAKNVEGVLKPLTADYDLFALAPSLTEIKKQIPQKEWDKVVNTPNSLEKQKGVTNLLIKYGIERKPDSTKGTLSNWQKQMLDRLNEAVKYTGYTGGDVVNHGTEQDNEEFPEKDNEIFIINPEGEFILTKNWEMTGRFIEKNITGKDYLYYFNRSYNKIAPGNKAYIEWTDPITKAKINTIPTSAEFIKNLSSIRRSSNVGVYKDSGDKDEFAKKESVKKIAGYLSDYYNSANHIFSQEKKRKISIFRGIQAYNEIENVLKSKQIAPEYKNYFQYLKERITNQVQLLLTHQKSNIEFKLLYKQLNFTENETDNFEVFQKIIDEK

Compound	Km (EF (edema factor))	Km (CyaA-N [1])	CyaA-N / KM (CyaA-N [2])
Nc1ncnc2c1ncn2[C@@H]1O[C@H](COP(=O)(O)OP(=O)(O)OP(=O)(O)O)[C@@H](O)[C@H]1O [ATP]	78.1 ± 8.7 µM	171 ± 22.8 µM	–
Nc1ccn([C@@H]2O[C@H](COP(=O)(O)OP(=O)(O)OP(=O)(O)O)[C@@H](O)[C@H]2O)c(=O)n1 [CTP]	367 ± 116 µM	475 ± 139 µM	–
Cc1cn([C@H]2C[C@H](O)[C@@H](COP(=O)(O)OP(=O)(O)OP(=O)(O)O)O2)c(=O)[nH]c1=O [TTP]	–	19 ± 5 µM	1332 ± 365 µM
Nc1nc2c(ncn2[C@@H]2O[C@H](COP(=O)(O)OP(=O)(O)OP(=O)(O)O)[C@@H](O)[C@H]2O)c(=O)[nH]1 [GTP]	85 ± 13 µM	191 ± 25 µM	–
O=c1ccn([C@@H]2O[C@H](COP(=O)(O)OP(=O)(O)OP(=O)(O)O)[C@@H](O)[C@H]2O)c(=O)[nH]1 [UTP]	792 ± 299 µM	599 ± 59 µM	–
O=P(O)(O)OP(=O)(O)OP(=O)(O)OC[C@H]1O[C@@H](n2cnc3c(O)ncnc32)[C@H](O)[C@@H]1O [ITP]	507 ± 108 µM	329 ± 44 µM	–
O=c1[nH]c(=O)c2ncn([C@@H]3O[C@H](COP(=O)(O)OP(=O)(O)OP(=O)(O)O)[C@@H](O)[C@H]3O)c2[nH]1 [XTP]	–	37 ± 7 µM	309 ± 57 µM

Source: PMC3726482 (PLoS ONE, 2013)
